Data set [1] deals with T1, ATP synthase subunit e (ATP5I) (Homo sapiens, UniProt P56385).
T1 construct: gene ATP5ME; full-length human ATP5I, N-terminal 6x-His-tagged, expressed in E. coli (mainly oligomers, mostly decamers)
T1 sequence (P56385 1-69): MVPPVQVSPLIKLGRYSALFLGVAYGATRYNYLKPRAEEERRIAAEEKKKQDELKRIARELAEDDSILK
As to the kind of experiment: SPR, BFB immobilized on streptavidin chip, recombinant ATP5I as analyte, steady-state fit; supported by streptavidin pull-down and immunoblot. In kind it is binding. (In general: Surface plasmon resonance follows binding to a sensor surface in real time, without labels.)

Data set [2] concerns the molecule itself. As to the kind of experiment: SEC; gel filtration of purified rATP5I (legend: Superose 12 10/300 GL for the profile, Superose 6 10/300 GL for the calibration with thyroglobulin, γ-globulin, myoglobin and vitamin B12). For orientation: Size exclusion chromatography separates by hydrodynamic size, large species first.

On to `N=C(N)NC(=N)NCCCCCCNC(=O)CCCCC1SCC2NC(=O)NC21` (centres unmarked) [compound 3, BFB], for which the dissociation constant Kd (commonly the equilibrium constant for the complex coming apart) in data set [1] was around 11.1 µM.

B1: N-terminal 6x-His-tagged ATP5I (ATP synthase subunit e), recombinant (natural protein, human, UniProt P56385 1-69, looked up)
chain: MVPPVQVSPLIKLGRYSALFLGVAYGATRYNYLKPRAEEERRIAAEEKKKQDELKRIARELAEDDSILK
notes: The vector is pET-TEV; The protein was extracted under denaturing conditions and brought back into native buffer on the column; also called rATP5I; recombinant ATP5I; not shown: His6, N-terminal, kept
Take B1: the stoichiometry N (as a rule, a count of units in the complex or per binding partner) in data set [2] was determined as 10.

Source of the values: PMC13179060, “The role of ATP synthase subunit e (ATP5I) in mediating the metabolic and antiproliferative effects of metformin in cancer cells” (eLife, 2026).
